This passage reports Activity results from ChEMBL document CHEMBL4052590, “Anti-Osteoporotic Activity of Harpagoside by Upregulation of the BMP2 and Wnt Signaling Pathways in Osteoblasts and Suppression of Differentiation in Osteoclasts” (J Nat Prod, 2017).

SMILES strings stand for the structures. Active and inactive are the calls of the source. The rule behind the calls is not given here.

For assay [1], the system named is Mus musculus. Nature of the assay: Effect on calcium level in serum of OVX-induced bone loss ICR mouse model at 10 ug/kg, po via gavage for 12 weeks by ELISA (reference value: 9.3 +/- 0.3 mg/dl). It is filed as functional.
Assay [2] deals with Mus musculus. The assay is described as follows: Effect on osteocalcin level in serum of OVX-induced bone loss ICR mouse model at 10 ug/kg, po via gavage for 12 weeks by ELISA (reference value: 176.9 +/- 4.7 ng/ml). Format: functional. (In general: ELISA stands for enzyme-linked immunosorbent assay.)
For assay [3], the system named is Mus musculus. The assay is described as follows: Effect on C-terminal telopeptide level in serum of OVX-induced bone loss ICR mouse model at 10 ug/kg, po via gavage for 12 weeks by ELISA (reference value: 95.7 +/- 3.8 ng/ml). It is filed as functional.
Assay [4] has as its system Mus musculus. The assay is described as follows: Effect on alkaline phosphatase activity in serum of OVX-induced bone loss ICR mouse model at 10 ug/kg, po via gavage for 12 weeks using p-NPP as substrate (reference value: 84.9 +/- 4.2 U/L). Format: functional.
Assay [5] has as its system Mus musculus. Nature of the assay: Anti-osteoporotic activity in OVX-induced bone loss ICR mouse model assessed as decrease in trabecular bone destruction in femur at 10 ug/kg, po administered for 12 weeks via gavage by microcomputed tomography. It is filed as functional, organism-based.
For assay [6], the system named is Mus musculus. Nature of the assay: Effect on […] level in serum of OVX-induced bone loss ICR mouse model at 10 ug/kg, po via gavage for 12 weeks by ELISA (reference value: 8.2 +/- 0.4 mg/dl). Format: functional.
The test system of assay [7] is Mus musculus. Nature of the assay: Effect on TRAP activity in serum of OVX-induced bone loss ICR mouse model at 10 ug/kg, po via gavage for 12 weeks (reference value: 19.8 +/- 1.0 U/L). Format: functional.

For `C[C@]12CC[C@@H]3c4ccc(O)cc4CC[C@H]3[C@@H]1CC[C@@H]2O` [ESTRADIOL], the Activity in assay [1] stood at 9.1 mg/dL; in assay [2], 141.9 ng/mL; in assay [3] it was 76.6 ng/mL; in assay [4], 59.9 U/L; in assay [6] it was 7.9 mg/dL; in assay [7], 10.8 U/L. Also, in assay [5], the outcome was Active.
